Biological target: T1, F508del (Homo sapiens, UniProt P13569, DEL508-508)
T1 construct: expressed in transfected cells
Experiment: Protocol 1: membrane potential optical assay (FLIPR III, voltage sensing dye), identification of potentiator compounds
Type: cell-based
Conditions: Table 3, compounds of Table 1
Summary of the method: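 Membrane potential in forskolin-activated, temperature-rescued F508del NIH 3T3 cells is followed with a voltage-sensing dye on FLIPR III. A chloride ion gradient created at the single addition step provides the driving force, after prior compound treatment.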

T1 sequence (P13569 with tags, fused parts or gaps DEL508-508): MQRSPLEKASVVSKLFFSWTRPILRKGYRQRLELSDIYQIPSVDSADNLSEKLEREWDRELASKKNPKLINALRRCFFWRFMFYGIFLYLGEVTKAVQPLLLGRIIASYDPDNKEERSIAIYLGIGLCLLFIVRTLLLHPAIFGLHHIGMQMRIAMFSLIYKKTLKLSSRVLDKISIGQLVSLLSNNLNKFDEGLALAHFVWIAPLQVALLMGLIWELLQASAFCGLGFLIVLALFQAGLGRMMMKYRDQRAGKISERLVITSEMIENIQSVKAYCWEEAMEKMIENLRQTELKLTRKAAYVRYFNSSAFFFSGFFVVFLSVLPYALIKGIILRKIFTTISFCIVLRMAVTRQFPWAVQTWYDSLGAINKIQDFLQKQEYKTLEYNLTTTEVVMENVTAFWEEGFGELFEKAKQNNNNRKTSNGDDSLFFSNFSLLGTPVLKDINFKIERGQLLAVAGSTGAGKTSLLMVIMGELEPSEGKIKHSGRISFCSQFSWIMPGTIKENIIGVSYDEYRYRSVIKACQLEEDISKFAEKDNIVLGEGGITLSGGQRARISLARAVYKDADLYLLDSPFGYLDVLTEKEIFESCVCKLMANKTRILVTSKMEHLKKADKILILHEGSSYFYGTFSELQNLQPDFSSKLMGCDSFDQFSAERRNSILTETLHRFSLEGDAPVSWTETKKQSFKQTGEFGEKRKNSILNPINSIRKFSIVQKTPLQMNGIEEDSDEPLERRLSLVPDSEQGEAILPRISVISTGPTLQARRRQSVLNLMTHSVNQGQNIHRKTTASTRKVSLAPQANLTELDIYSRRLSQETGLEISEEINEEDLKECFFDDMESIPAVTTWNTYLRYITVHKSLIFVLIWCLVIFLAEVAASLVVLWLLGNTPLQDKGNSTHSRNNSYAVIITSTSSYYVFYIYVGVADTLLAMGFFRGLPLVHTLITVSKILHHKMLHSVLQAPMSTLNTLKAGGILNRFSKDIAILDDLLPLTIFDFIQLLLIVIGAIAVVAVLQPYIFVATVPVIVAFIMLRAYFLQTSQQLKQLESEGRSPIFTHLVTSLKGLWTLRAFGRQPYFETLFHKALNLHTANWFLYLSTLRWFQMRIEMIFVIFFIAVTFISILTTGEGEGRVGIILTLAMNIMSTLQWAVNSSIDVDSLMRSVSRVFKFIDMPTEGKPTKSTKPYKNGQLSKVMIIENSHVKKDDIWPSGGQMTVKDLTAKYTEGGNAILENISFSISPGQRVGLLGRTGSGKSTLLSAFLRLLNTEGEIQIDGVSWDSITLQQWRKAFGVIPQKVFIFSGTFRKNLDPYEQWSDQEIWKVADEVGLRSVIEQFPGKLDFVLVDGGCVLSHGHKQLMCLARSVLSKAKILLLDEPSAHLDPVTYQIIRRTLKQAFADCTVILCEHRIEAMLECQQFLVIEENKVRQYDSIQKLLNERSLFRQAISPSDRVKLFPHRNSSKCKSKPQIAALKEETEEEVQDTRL

Structure (SMILES)	EC30
CCC1CCC(c2ccc(C(=O)NS(=O)(=O)c3cccc(N)n3)c(Oc3c(C)cc(C)cc3C)n2)CC1 (stereo not shown) [Compound 1475, N-[(6-amino-2-pyridyl)sulfonyl]-6-(4-ethylcyclohexyl)-2-(2,4,6-trimethylphenoxy)pyridine-3-carboxamide]	+++ (“+++” means <3 uM)
CC(C)(C)c1ccc(C(=O)NS(=O)(=O)c2cccc(N)n2)c(N2CCC[C@@H](c3ccccc3)C2)n1 [Compound 1261, N-[(6-amino-2-pyridyl)sulfonyl]-6-tert-butyl-2-[(3S)-3-phenyl-1-piperidyl]pyridine-3-carboxamide]	+++ (“+++” means <3 uM)
CC(C)COc1cc(F)cc(-c2ccc(C(=O)NS(=O)(=O)c3ccn[nH]3)c(N3CCCC(C4CC4)C3)n2)c1 (stereo not shown) [Compound 1286, 2-(3-cyclopropyl-1-piperidyl)-6-(3-fluoro-5-isobutoxy-phenyl)-N-(1H-pyrazol-5-ylsulfonyl)pyridine-3-carboxamide]	+++ (“+++” means <3 uM)
CC(C)COc1cc(F)cc(-c2ccc(C(=O)NS(=O)(=O)c3cccc(N)n3)c(OCC3CCOC3)n2)c1 (stereo not shown) [Compound 1499, N-[(6-amino-2-pyridyl)sulfonyl]-6-(3-fluoro-5-isobutoxy-phenyl)-2-(tetrahydrofuran-3-ylmethoxy)pyridine-3-carboxamide]	++ (“++” means between 3 uM and 10 uM)
CC(C)COc1cc(F)cc(-c2ccc(C(=O)NS(=O)(=O)c3ccccn3)c(N3CCC(C)(C)CC3)n2)c1 [Compound 1069, 2-(4,4-dimethyl-1-piperidyl)-6-(3-fluoro-5-isobutoxy-phenyl)-N-(2-pyridylsulfonyl)pyridine-3-carboxamide]	+++ (“+++” means <3 uM)
C[C@@H]1CN(c2nc(C3CCCCO3)ccc2C(=O)NS(=O)(=O)c2ccc[nH]c2=O)C(C)(C)C1 (stereo partly drawn) [Compound 1503, N-[(2-oxo-1H-pyridin-3-yl)sulfonyl]-6-tetrahydropyran-2-yl-2-[(4S)-2,2,4-trimethylpyrrolidin-1-yl]pyridine-3-carboxamide]	++ (“++” means between 3 uM and 10 uM)
CC(C)COc1ccc(F)c(-c2ccc(C(=O)NS(=O)(=O)c3cccc(N)n3)c(N3CC(C)CC3(C)C)n2)c1 (stereo not shown) [Compound 1194, N-[(6-amino-2-pyridyl)sulfonyl]-6-(2-fluoro-5-isobutoxy-phenyl)-2-(2,2,4-trimethylpyrrolidin-1-yl)pyridine-3-carboxamide]	+++ (“+++” means <3 uM)
CCCOc1ccc(-c2ccc(C(=O)NS(=O)(=O)c3cccc(N)n3)c(Oc3c(C)cc(C)cc3C)n2)cc1 [Compound 996, N-[(6-amino-2-pyridyl)sulfonyl]-6-(4-propoxyphenyl)-2-(2,4,6-trimethylphenoxy)pyridine-3-carboxamide]	+++ (“+++” means <3 uM)
Cc1cc(C)c(Oc2nc(-c3cc(F)cc(F)c3)ccc2C(=O)NS(=O)(=O)c2cccc(N)n2)c(C)c1 [Compound 1325, N-[(6-amino-2-pyridyl)sulfonyl]-6-(3,5-difluorophenyl)-2-(2,4,6-trimethylphenoxy)pyridine-3-carboxamide]	+++ (“+++” means <3 uM)
Cc1cc(C)c(Oc2nc(C3=CC4CCC3(C)C4(C)C)ccc2C(=O)NS(=O)(=O)c2cccc(N)n2)c(C)c1 (stereo not shown) [Compound 1410, N-[(6-amino-2-pyridyl)sulfonyl]-6-(4,7,7-trimethyl-3-bicyclo[2.2.1]hept-2-enyl)-2-(2,4,6-trimethylphenoxy)pyridine-3-carboxamide]	+++ (“+++” means <3 uM)
CC(C)COc1cc(F)cc(-c2ccc(C(=O)NS(=O)(=O)N3CCCC(O)C3)c(N3C[C@@H](C)CC3(C)C)n2)c1 (stereo partly drawn) [Compound 1608, 6-(3-fluoro-5-isobutoxy-phenyl)-N-[(3-hydroxy-1-piperidyl)sulfonyl]-2-[(4S)-2,2,4-trimethylpyrrolidin-1-yl]pyridine-3-carboxamide]	+++ (“+++” means <3 uM)
COc1ccc(-c2ccc(C(=O)NS(=O)(=O)c3cccc(N)n3)c(N3[C@H](C)CC[C@@H]3C)n2)cc1 [Compound 1215, N-[(6-amino-2-pyridyl)sulfonyl]-2-[(2S,5R)-2,5-dimethylpyrrolidin-1-yl]-6-(4-methoxyphenyl)pyridine-3-carboxamide]	++ (“++” means between 3 uM and 10 uM)
COC1CCN(c2nc(C(C)(C)C)ccc2C(=O)NS(=O)(=O)c2cccc(N)n2)CC1 [Compound 1164, N-[(6-amino-2-pyridyl)sulfonyl]-6-tert-butyl-2-(4-methoxy-1-piperidyl)pyridine-3-carboxamide]	++ (“++” means between 3 uM and 10 uM)
Cc1cc(C)c(Oc2nc(C(C)(C)C)ccc2C(=O)NS(=O)(=O)c2csc(N)n2)c(C)c1 [Compound 1294, N-(2-aminothiazol-4-yl)sulfonyl-6-tert-butyl-2-(2,4,6-trimethylphenoxy)pyridine-3-carboxamide]	+++ (“+++” means <3 uM)
CCOc1cccc2c1CN(Cc1c(C)cc(C)cc1C)C2(C)C(=O)NS(=O)(=O)c1cccc(F)c1 (stereo not shown) [Compound 1425, 4-ethoxy-N-(3-fluorophenyl)sulfonyl-1-methyl-2-[(2,4,6-trimethylphenyl)methyl]isoindoline-1-carboxamide]	+++ (“+++” means <3 uM)
CCOc1ccc(-c2ccc(C(=O)NS(=O)(=O)c3cccc(N)n3)c(N3CCC(C)CC3)n2)cc1 [Compound 910, N-[(6-amino-2-pyridyl)sulfonyl]-6-(4-ethoxyphenyl)-2-(4-methyl-1-piperidyl)pyridine-3-carboxamide]	+++ (“+++” means <3 uM)
Cc1nc(OC(C)C)ccc1-c1ccc(C(=O)NS(=O)(=O)c2cccc(N)n2)c(N2CC(C)CC2(C)C)n1 (stereo not shown) [Compound 814, N-[(6-amino-2-pyridyl)sulfonyl]-6-(6-isopropoxy-2-methyl-3-pyridyl)-2-(2,2,4-trimethylpyrrolidin-1-yl)pyridine-3-carboxamide]	+++ (“+++” means <3 uM)
Cc1cc(C)c(Oc2nc(C3=CCC(C(F)(F)F)CC3)ccc2C(=O)NS(=O)(=O)c2cccc(N)n2)c(C)c1 (stereo not shown) [Compound 1402, N-[(6-amino-2-pyridyl)sulfonyl]-6-[4-(trifluoromethyl)cyclohexen-1-yl]-2-(2,4,6-trimethylphenoxy)pyridine-3-carboxamide]	+++ (“+++” means <3 uM)
CCOc1cccc2c1CN(Cc1cc(F)cc(OC)c1)C2(C)C(=O)NS(=O)(=O)c1cccc(F)n1 (stereo not shown) [Compound 1428, 4-ethoxy-2-[(3-fluoro-5-methoxy-phenyl)methyl]-N-[(6-fluoro-2-pyridyl)sulfonyl]-1-methyl-isoindoline-1-carboxamide]	+++ (“+++” means <3 uM)

The next lines start with the values.

EC30	Structure (SMILES)
+++ (“+++” means <3 uM)	CCOc1cc(F)ccc1-c1ccc(C(=O)NS(=O)(=O)c2ccc[nH]c2=O)c(N2C[C@@H](C)CC2(C)C)n1 [Compound 1867, 6-(2-ethoxy-4-fluoro-phenyl)-N-[(2-oxo-1H-pyridin-3-yl)sulfonyl]-2-[(4S)-2,2,4-trimethylpyrrolidin-1-yl]pyridine-3-carboxamide]
+++ (“+++” means <3 uM)	C[C@@H]1CN(c2nc([C@H]3CC[C@H](C(F)(F)F)CC3)ccc2C(=O)NS(=O)(=O)c2ccc[nH]c2=O)C(C)(C)C1 [Compound 1710, N-[(2-oxo-1H-pyridin-3-yl)sulfonyl]-6-[4-(trifluoromethyl)cyclohexyl]-2-[(4S)-2,2,4-trimethylpyrrolidin-1-yl]pyridine-3-carboxamide]
+++ (“+++” means <3 uM)	CCOc1cccc2c1CN(Cc1c(C)cc(C)cc1C)C2(C)C(=O)NS(=O)(=O)c1cncs1 (stereo not shown) [Compound 1606, 4-ethoxy-1-methyl-N-thiazol-5-ylsulfonyl-2-[(2,4,6-trimethylphenyl)methyl]isoindoline-1-carboxamide]
+++ (“+++” means <3 uM)	COc1ccccc1S(=O)(=O)NC(=O)c1cc(C(C)(C)C)nn1Cc1c(C)cccc1C [Compound 1551, 5-tert-butyl-2-[(2,6-dimethylphenyl)methyl]-N-(2-methoxyphenyl)sulfonyl-pyrazole-3-carboxamide]
++ (“++” means between 3 uM and 10 uM)	C[C@@H]1CN(c2nc(C3=CCCN(C(=O)c4cccc(Cl)c4)C3)ccc2C(=O)NS(=O)(=O)c2cccc(N)n2)C(C)(C)C1 [Compound 1984, N-[(6-amino-2-pyridyl)sulfonyl]-6-[1-(3-chlorobenzoyl)-3,6-dihydro-2H-pyridin-5-yl]-2-[(4S)-2,2,4-trimethylpyrrolidin-1-yl]pyridine-3-carboxamide]
++ (“++” means between 3 uM and 10 uM)	CC1(C)CN(c2nccc(C(F)(F)F)c2C(=O)NS(=O)(=O)c2cccc(N)n2)C(C)(C)C1 [Compound 1658, N-[(6-amino-2-pyridyl)sulfonyl]-2-(2,2,4,4-tetramethylpyrrolidin-1-yl)-4-(trifluoromethyl)pyridine-3-carboxamide]
++ (“++” means between 3 uM and 10 uM)	C[C@@H]1CN(c2nc(-c3cc(O)cc(F)c3)ccc2C(=O)NS(=O)(=O)c2cccc(N)n2)C(C)(C)C1 [Compound 1636, N-[(6-amino-2-pyridyl)sulfonyl]-6-(3-fluoro-5-hydroxy-phenyl)-2-[(4S)-2,2,4-trimethylpyrrolidin-1-yl]pyridine-3-carboxamide]
++ (“++” means between 3 uM and 10 uM)	COc1ccc(-c2ccc(C(=O)NS(=O)(=O)c3ccc[nH]c3=O)c(N3C[C@@H](C)CC3(C)C)n2)c(OC)n1 [Compound 1853, 6-(2,6-dimethoxy-3-pyridyl)-N-[(2-oxo-1H-pyridin-3-yl)sulfonyl]-2-[(4S)-2,2,4-trimethylpyrrolidin-1-yl]pyridine-3-carboxamide]
+++ (“+++” means <3 uM)	CC1CN(c2nc(C(C)(C)C)c(C3=CCCCC3)cc2C(=O)NS(=O)(=O)c2cccc(N)n2)C(C)(C)C1 (stereo not shown) [Compound 1601, N-[(6-amino-2-pyridyl)sulfonyl]-6-tert-butyl-5-(cyclohexen-1-yl)-2-(2,2,4-trimethylpyrrolidin-1-yl)pyridine-3-carboxamide]

— patent publication US10758534B2 (Vertex Pharmaceuticals Incorporated, priority 2014, dated 2020)
